Measured values as given in BindingDB's records for patent US11365204 (Union therapeutics A/S, 2022).
pIC50: −log10 of the molar value.

target: Tumor necrosis factor (Homo sapiens, UniProt P01375); experiment: TNF-alpha RELEASE
Method: Human peripheral blood mononuclear cells (PBMC) were isolated from fresh buffy coats by density centrifugation using lymphoprep tubes (Medinor). Frozen PBMC's were washed in serum free assay buffer (RPMI1640 with 25 mM HEPES, 1% pen/strep, […], 0.5% human serum albumin) and living cells counted. Lipopolysaccharide (1 microg/ml; SIGMA) was added to the cells which were then transferred to 384 well tissue culture plates (5×105 c/ml) containing titrated test compounds. The cells were incubated for 18 hours at 37° C. in serum free assay buffer and the level of TNFalpha in the supernatant was quantitated by AlphaLISA (PerkinElmer) by measuring fluorescence intensity at 615 nm.Results were expressed as IC50 values calculated from inhibition curves using as controls the secretion in LPS stimulated wells and the secretion in cells incubated with 10 microM of a PDE4 inhibitor reference compound.

Sequence of Tumor necrosis factor (P01375 whole entry): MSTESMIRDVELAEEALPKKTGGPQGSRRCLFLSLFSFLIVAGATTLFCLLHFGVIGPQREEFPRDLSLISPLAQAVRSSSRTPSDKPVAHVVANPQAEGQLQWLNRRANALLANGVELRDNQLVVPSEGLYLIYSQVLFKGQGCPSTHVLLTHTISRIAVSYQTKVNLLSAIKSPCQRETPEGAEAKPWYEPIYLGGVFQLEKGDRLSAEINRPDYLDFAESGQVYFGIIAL

| Compound | pIC50 |
| --- | --- |
| CC(=O)N1CC[C@H](Nc2nc(N3CC(OC(=O)c4cnsc4)C3)nc3c2[S@+]([O-])CC3)C1 [US11365204, Example 72] | > 7.00 |
| CC(=O)N1CC[C@H](Nc2nc(N3CC(OC(=O)c4cscn4)C3)nc3c2[S@+]([O-])CC3)C1 [US11365204, Example 73] | 6.52 |
| CC(=O)N1CC[C@H](Nc2nc(N3CC(OC(=O)C4CCOCC4)C3)nc3c2[S@+]([O-])CC3)C1 [US11365204, Example 74] | 6.52 |
| CC(=O)N1CCC(Nc2nc(N3CC(OC(=O)c4cscn4)C3)nc3c2[S+]([O-])CC3)CC1 (centres undefined) [US11365204, Example 76] | < 6.30 |
